The source of these data is publication PMC3039983, “Cloning, Expression, and Characterization of Thermotolerant Manganese Superoxide Dismutase from Bacillus sp. MHS47” (International Journal of Molecular Sciences, 2011).

For this assay, the target named is T1, MnSOD47 (Bacillus sp. MHS47, UniProt E9LK91).
T1 construct: gene sodA
Description: xanthine oxidase/hypoxanthine-tetrazolium SOD assay, […] nm. Conditions: superoxide generated in situ by xanthine oxidase/hypoxanthine; indirect read-out. It is filed as biochemical.

Each structure is given as a SMILES string.

T1 sequence (E9LK91 1-203 limits assumed): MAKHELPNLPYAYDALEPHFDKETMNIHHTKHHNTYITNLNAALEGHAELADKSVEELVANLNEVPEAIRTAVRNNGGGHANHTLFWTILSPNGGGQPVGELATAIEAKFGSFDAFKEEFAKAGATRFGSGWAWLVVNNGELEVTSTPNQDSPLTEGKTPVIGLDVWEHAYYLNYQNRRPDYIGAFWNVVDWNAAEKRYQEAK

For the compound `[O]O` [superoxide radical], the “xanthine oxidase/hypoxanthine-tetrazolium SOD assay, 450 nm” value is on record as “coupled to a tetrazolium salt to detect the reduction in superoxide radicals”.
